# Test results taken from ChEMBL document CHEMBL1148909, “Antineoplastic agents. 535. Isolation and structure of plakorstatins 1 and 2 from the Indo-Pacific sponge Plakortis nigra” (2004).
# System: P388
# Experiment: Growth inhibition of mouse P388 cells
# Type: functional
# Conditions: read-out: ED50 (the source's name)
row,SMILES,EC50 [µg/mL]
1,"CC/C(=C\[C@@]1(CC)C[C@H](CC)[C@H](CC(=O)OC)OO1)[C@@H]1O[C@@H]1CC (single isomer, unassigned) [PLAKORSTATIN 2]",0.91
2,"CC/C(=C\[C@@]1(CC)C[C@H](CC)[C@H](CC(=O)OC)OO1)[C@H]1O[C@H]1CC (single isomer, unassigned) [PLAKORSTATIN 1]",1.1
